Patent US6576642B2, “Diamide compounds and compositions containing the same” (Kowa Co., Ltd., priority 1996, dated 2003)

Tested on: production of IgE antibody
Experiment: Evaluation of inhibitory effect on production of IgE antibody (mouse spleen B cells cultured with LPS and IL-4, IgE in supernatant by ELISA)
Format: cell-based
Conditions: test agent at 10^-5 M; mouse (Balb/C) B cells, LPS + mouse IL-4, IgE in culture supernatant by ELISA
Method: Evaluation of inhibitory effect on production of IgE antibody:
A spleen was enucleated from a mouse (Balb/C, male, aged 8 weeks) and shredded in 0.3% BSA/HBSS to prepare single cells by means of a 200-mesh screen. Further, the single cells were hemolyzed by 0.75% ammonium chloride-17 mM Tris solution to prepare a splenocyte suspension (1×10^7/ml) using RPMI 1640 medium/25 mM HEPES/0.3% BSA. After the suspension was reacted with a mouse anti-mouse Thy-1.2 monoclonal antibody (product of Cedarlane Co.) at 4° C. for 1 hour, the reaction mixture was centrifuged, and the sediment cells were suspended again (1×10^7/ml, RPMI/HEPES/BSA). After the suspension was then reacted with a low-cytotoxic rabbit complement (product of Cedarlane Co.) at 37° C. for 1 hour, killed cells were removed by specific gravity centrifugation using lympholyte M (product of Cedarlane Co.) to obtain a B cell fraction as viable cells.
After B cells (10^5/0.2 ml/well) were cultured for a day together with LPS (E. coli 026:B6, product of DIFCO Co.) using a 96-well plate, mouse IL-4 (product of Genzyme Co.) was added to conduct culture further for 7 days.
Each test was added on the first day of the culture, and the amount of IgE in a culture supernatant was meausred by ELISA after the culture, thereby calculating out the inhibitory effect of the agent on the production of an IgE antibody.

Structure (SMILES)	Inhibitory effect on production of IgE (%)
COc1cc(/C=C/C=C/C(=O)N[C@@H]2CCCC[C@H]2NC(=O)/C=C/C=C/c2cc(OC)c(OC)c(OC)c2)cc(OC)c1OC (relative stereo) [Example 15, trans-N,N′-bis[5-(3,4,5-trimethoxy-phenyl)penta-(2E,4E)-dienoyl]-1,2-diaminocyclohexane]	100
COc1cc(/C=C/C=C/C(=O)N(C)CCCCCCN(C)C(=O)/C=C/C=C/c2cc(OC)c(OC)c(OC)c2)cc(OC)c1OC [Example 5, N,N′-bis[5-(3,4,5-trimethoxyphenyl)-penta-(2E,4E)-dienoyl]-N,N′-dimethyl-1,6-diaminohexane]	90
COc1cc(/C=C/C=C/C(=O)NCc2ccc(CNC(=O)/C=C/C=C/c3cc(OC)c(OC)c(OC)c3)cc2)cc(OC)c1OC [Example 22, N,N′-bis[5-(3,4,5-trimethoxyphenyl)-penta-(2E,4E)-dienoyl]-1,4-bis(aminomethyl)benzene]	90
COc1cc(/C=C/C=C/C(=O)Nc2ccccc2NC(=O)/C=C/C=C/c2cc(OC)c(OC)c(OC)c2)cc(OC)c1OC [Example 26, N,N′-bis[5-(3,4,5-trimethoxyphenyl)-penta-(2E,4E)-dienoyl]-1,2-diaminobenzene]	85
COc1cc(/C=C/C=C/C(=O)Nc2cccnc2NC(=O)/C=C/C=C/c2cc(OC)c(OC)c(OC)c2)cc(OC)c1OC [Example 38, 2,3-bis[5-(3,4,5-trimethoxyphenyl)-penta-(2E,4E)-dienoylamino]pyridine]	80
